According to PubChem BioAssay AID463229 (Broad Institute, 2010):
Where “and” joins values, the source holds several entries; their conditions need not be identical. Equal entries are not always repeated. Calls of active or inactive are those of the source.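 How the source made its calls: active means compounds raising the signal whose fitted half-maximal concentration is at or below their top tested dose (cut at about 25 µM in these data); inconclusive means flat fit at 30 to 70% activity, or a poor fit; inactive means the rest.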

Tested on: INS-1E rat beta cells, no cytokines, CellTiter-Glo ATP, 48 h
Test: ATP level change in INS-1E without cytokines, dose response, counter-screen for beta-cell apoptosis protection project, INS-1E rat cells, ATP luminescence, cherry pick (AID 463229)

For `Cc1ccc(-c2nn(-c3ccccc3)cc2/C=N/NC(=O)c2ccc(Br)o2)cc1`, which AC50 is on record?
Its AC50 is 0.569 µM.

For `COc1ccc(NS(=O)(=O)c2ccc(N3CCCCC3)c(N)c2)cc1`, which AC50 is on record?
Its AC50 is 4.75 µM.

With `COc1cccc(/C=N/Nc2ncnc3scc(-c4ccccc4)c23)c1O` as the molecule, how does the AC50 read?
The AC50 was 2.02 µM.

`COc1ccc(C(=O)N2CCN(c3ccc([N+](=O)[O-])c(NCCc4ccc(OC)c(OC)c4)c3)CC2)cc1` was tested. Which AC50 did it give?
Its AC50 is 3.46 µM.

With `CCN1CCN(c2c(Cl)cccc2NC(=O)c2ccc([N+](=O)[O-])o2)CC1` as the molecule, how does the AC50 read?
Its AC50 is 7.11 µM.

`Cc1cc(-c2n[nH]c(=S)n2/N=C/C(Br)=C/c2ccccc2)n[nH]1` was tested. Which AC50 did it give?
Its AC50 is 15.6 µM.

`Cc1ncc(CO)c(/C=N/NC(=O)c2cc3c(s2)CCCC3)c1O` was tested. Which AC50 did it give?
The AC50 was 5.92 µM.

Which AC50 does the source give for `N#C/C(N=Nc1ccccc1O)=N\Nc1ccccc1O` here?
The AC50 was 4.12 µM.

Which AC50 does the source give for `COc1cccc(/C=N/Nc2nc(Nc3ccccc3)nc(-n3nc(C)cc3C)n2)c1O` here?
The AC50 was 12.3 µM.

With `CC(C)(C)OC(=O)NCc1ccc(NC(=O)c2nc[nH]c2C(=O)NCCNC(=O)c2[nH]cnc2C(=O)Nc2ccc(CNC(=O)OC(C)(C)C)cc2)cc1` as the molecule, how does the AC50 read?
Its AC50 is 10.8 µM.

For `COC(=O)c1ccc2c(=O)n(-c3ccccc3)c(SCN3C(=O)c4ccccc4C3=O)nc2c1`, which AC50 is on record?
Its AC50 is 3.86 µM.

How did the AC50 turn out when `O=C(NC(NC(=S)Nc1ccccc1)C(Cl)(Cl)Cl)c1cccc(Cl)c1` (stereo not given) was run?
Its AC50 is 13.9 µM.

For `CCN(CC)S(=O)(=O)c1cccc(NC(=O)Nc2cccc(C(F)(F)F)c2)c1`, which AC50 is on record?
Its AC50 is 7.13 µM.

With `COc1ccc(CCNc2cc(N3CCN(C(=O)c4ccccc4OC)CC3)ccc2[N+](=O)[O-])cc1OC` as the molecule, how does the AC50 read?
Its AC50 is 8.74 µM.

With `CC1=C(CC(=O)c2ccc(Cl)cc2)C(=O)c2ccccc2C1=O` as the molecule, how does the AC50 read?
The AC50 was 26.6 µM.

With `CC(C)COCc1ccc(O)c2ncccc12` as the molecule, how does the AC50 read?
The AC50 was 8.01 µM.

With `O=C(NC(NC(=S)Nc1ccc(Cl)cc1Cl)C(Cl)(Cl)Cl)c1cccc([N+](=O)[O-])c1` (stereo not given) as the molecule, how does the AC50 read?
The AC50 was 7.31 µM.

With `CCCC12C(=O)C(C)(C(c3ccccc3)=C1c1ccccc1)C1C(=O)N(c3ccc(C)cc3)C(=O)C12` (stereo not given) as the molecule, how does the AC50 read?
Its AC50 is 4.4 µM.

Which AC50 does the source give for `COc1ccc(-[n+]2c(-c3ccccc3)cc(-c3ccccc3)cc2-c2ccccc2)cc1` here?
Its AC50 is 1.71 µM.

For `O=C(/C=C/c1cccc(Cl)c1)c1ccc([N+](=O)[O-])o1`, which AC50 is on record?
Its AC50 is 3.68 µM.

How did the AC50 turn out when `CN(C)S(=O)(=O)c1cccc(NC(=S)N/N=C/c2cc(Br)ccc2O)c1` was run?
Its AC50 is 2.72 µM.

For `CCCCCc1cc(=O)oc2c(C(CCN3CCCC(C)C3)c3cc(OC)c(OC)c(OC)c3)c(OC)cc(OC)c12` (stereo not given), which AC50 is on record?
The AC50 was 14 µM.

For `O=C(N/N=C/c1c(O)ccc2ccccc12)c1ccc(Br)o1`, which AC50 is on record?
The AC50 was 4.83 µM.

For `COc1cnc(-c2ccccn2)nc1Sc1ccccc1Cl`, which AC50 is on record?
Its AC50 is 23.1 µM.

For `CCc1ccc2[nH]c3nc(N/N=C/c4ccc(O)cc4O)nnc3c2c1`, which AC50 is on record?
The AC50 was 21.2 µM.

With `Clc1cc2cccnc2c2ncccc12` as the molecule, how does the AC50 read?
The AC50 was 15 µM.

`COc1ccc(CCNC(=O)c2cc3c(=O)n4cccc(C)c4nc3n(Cc3ccco3)c2=N)cc1OC` was tested. Which AC50 did it give?
The AC50 was 9.18 µM.

Which AC50 does the source give for `COc1cnc(-c2ccccn2)nc1N(C)C` here?
Its AC50 is 21.7 µM.

For `COc1cc(C)c(C(=O)CC(=O)c2c(C)cc(OC)cc2C)c(C)c1`, which AC50 is on record?
Its AC50 is 13.7 µM.

How did the AC50 turn out when `Cc1ccc(-c2c[n+]3c(n2-c2ccccc2)SCC3)cc1` was run?
The AC50 was 2.63 µM.

For `Cc1ccc2nc(N(CCCN(C)C)C(=O)c3ccc(S(=O)(=O)N4CCc5ccccc5C4)cc3)sc2c1`, which AC50 is on record?
Its AC50 is 6.99 µM.

For `Cc1cc(C(C)(C)CC(C)(C)C)ccc1OCCOCC[N+](C)(C)Cc1ccccc1`, which AC50 is on record?
Its AC50 is 4.07 µM.

How did the AC50 turn out when `Cc1ccc(C(=O)NC(=S)/C=C2\N(C)c3ccccc3C2(C)C)cc1` was run?
Its AC50 is 4.23 µM.

Which AC50 does the source give for `CCOc1ccc(Nc2c3ccccc3nc3ccccc23)cc1` here?
The AC50 was 7.36 µM.

How did the AC50 turn out when `NC(=S)N/N=C/c1ccccc1O` was run?
The AC50 was > 26 µM (inactive).

With `O=C(/C=C/c1ccccc1)NC(=S)NNC(=O)c1cnccn1` as the molecule, how does the AC50 read?
The AC50 was 5.91 µM.

How did the AC50 turn out when `O=C(Nc1nc(-c2ccccn2)cs1)c1ccc(Br)s1` was run?
Its AC50 is 6.75 µM.

Which AC50 does the source give for `Cc1ccc(NC2=CC(=O)C(=O)c3ccccc32)c(C)c1` here?
Its AC50 is 4.39 µM.

How did the AC50 turn out when `O=c1c2ccccc2nc(COc2ccccc2)n1/N=C/c1ccc(O)cc1O` was run?
Its AC50 is 15.9 µM.

Which AC50 does the source give for `CCC(=O)NC(c1cccs1)c1ccc2cccnc2c1O` (stereo not given) here?
Its AC50 is 3.37 µM.

How did the AC50 turn out when `CCO[C@H]1OC(C(=O)N2CCN(Cc3ccc4c(c3)OCO4)CC2)=C[C@@H](c2csc3ccccc23)[C@@H]1CCCO` was run?
Its AC50 is 6.01 µM.

Which AC50 does the source give for `Cc1ccc(NC(=O)Nc2cccc([N+](=O)[O-])c2)cc1F` here?
Its AC50 is 8.06 µM.

`CCc1nnc(NC(=O)c2cccc(C(=O)Nc3nnc(CC)s3)n2)s1` was tested. Which AC50 did it give?
Its AC50 is 2.98 µM.

Which AC50 does the source give for `Nc1c(Cl)ncnc1N/N=C/c1ccccn1` here?
Its AC50 is 2.07 µM.

Which AC50 does the source give for `Cc1ccc(-c2cn(-c3ccccc3)c3[n+]2CCCS3)cc1` here?
Its AC50 is 1.97 µM and 2.98 µM.

For `Cc1cccc(Oc2cc(NC(=O)c3ccccc3)cc([N+](=O)[O-])c2)c1`, which AC50 is on record?
The AC50 was 7.84 µM.

How did the AC50 turn out when `Cc1cc(C(C)(C)C)cc(C)c1C[n+]1ccc2ccccc2c1` was run?
The AC50 was 1.74 µM.

With `CCC(=O)NC(c1cc(Cl)c2cccnc2c1O)C1CC1` (stereo not given) as the molecule, how does the AC50 read?
The AC50 was 6.34 µM.

Which AC50 does the source give for `Cc1ccc(C)c(NC(=S)NC(NC(=O)Cc2cccc3ccccc23)C(Cl)(Cl)Cl)c1` (stereo not given) here?
Its AC50 is 5.67 µM.

How did the AC50 turn out when `NCCCn1c(C(=O)c2cc(Cl)c(N)c(Cl)c2)c2ccc([N+](=O)[O-])cc2[n+]1[O-]` was run?
Its AC50 is 5.34 µM.

How did the AC50 turn out when `CCC(/C=C1\Sc2ccc(OC)cc2N1CC)=C\c1sc2ccc(OC)cc2[n+]1CCCS(=O)(=O)[O-]` was run?
Its AC50 is 5.74 µM.

`C/C(=N\NC(=O)c1cc2ccccc2cc1O)c1ccccn1` was tested. Which AC50 did it give?
Its AC50 is 2.66 µM.

Which AC50 does the source give for `Oc1[nH]c2ccccc2c1N=NC(=S)N1CCOCC1` here?
Its AC50 is 3.98 µM.

How did the AC50 turn out when `CCC1=NN(C(=O)c2cccc(Br)c2)C(O)(c2ccc(Br)cc2)C1` (stereo not given) was run?
Its AC50 is 9.79 µM.

`FC(F)(F)c1nc2ccccc2n2c(-c3ccc(Cl)cc3)nnc12` was tested. Which AC50 did it give?
The AC50 was 7.14 µM.
